Among the data in PubChem BioAssay AID248 (DTP/NCI, 2004) are T/C values, retold here.

The experiment has as its system L1210 leukemia ip in BDF1 mice, survival T/C. In words: NCI In Vivo Anticancer Drug Screen. Data for tumor model L1210 Leukemia (intraperitoneal) in B6D2F1 (BDF1) mice. The note with it: endpoint: mean survival time, higher = longer survival. The gist of the method: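 Value reflects the ratio of survival in compound-treated mice to survival in vehicle-treated controls, with both groups carrying the same transplanted tumor.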

[1] abbreviates: dose: 100.0 mg/kg/injection, schedule: Q04DX003 (ip), vehicle: saline with Tween-80.
[2] abbreviates: dose: 200.0 mg/kg/injection, schedule: Q04DX003 (ip), vehicle: saline with Tween-80.
Where [3] appears, read: dose: 50.0 mg/kg/injection, schedule: Q01DX001 (ip), vehicle: saline.
The mark [4] stands for this setting: dose: 100.0 mg/kg/injection, schedule: Q01DX001 (ip), vehicle: saline.
Setting [5] is: dose: 200.0 mg/kg/injection, schedule: Q01DX001 (ip), vehicle: saline.
[6] abbreviates: dose: 400.0 mg/kg/injection, schedule: Q01DX001 (ip), vehicle: saline.
Where [7] appears, read: dose: 100.0 mg/kg/injection, schedule: Q04DX003 (ip), vehicle: saline.
Setting [8] is: dose: 200.0 mg/kg/injection, schedule: Q04DX003 (ip), vehicle: saline.
Setting [9] is: dose: 100.0 mg/kg/injection, schedule: Q01DX009 (ip), vehicle: Klucel (hydroxypropylcellulose) (HPC).
Where [10] appears, read: dose: 100.0 mg/kg/injection, schedule: Q04DX002 (ip), vehicle: Klucel (hydroxypropylcellulose) (HPC).
The mark [11] stands for this setting: dose: 200.0 mg/kg/injection, schedule: Q01DX009 (ip), vehicle: Klucel (hydroxypropylcellulose) (HPC).
The mark [12] stands for this setting: dose: 200.0 mg/kg/injection, schedule: Q04DX002 (ip), vehicle: Klucel (hydroxypropylcellulose) (HPC).
Setting [13] is: dose: 400.0 mg/kg/injection, schedule: Q01DX009 (ip), vehicle: Klucel (hydroxypropylcellulose) (HPC).
Setting [14] is: dose: 400.0 mg/kg/injection, schedule: Q04DX002 (ip), vehicle: Klucel (hydroxypropylcellulose) (HPC).
The mark [15] stands for this setting: dose: 100.0 mg/kg/injection, schedule: Q04DX003 (ip), vehicle: Klucel (hydroxypropylcellulose) (HPC).
Where [16] appears, read: dose: 200.0 mg/kg/injection, schedule: Q04DX003 (ip), vehicle: Klucel (hydroxypropylcellulose) (HPC).
Where [17] appears, read: dose: 400.0 mg/kg/injection, schedule: Q04DX003 (ip), vehicle: Klucel (hydroxypropylcellulose) (HPC).

Where “and” joins values, the source holds several entries; their conditions need not be identical. Identical values can stand only once. Inconclusive results and toxic doses are left out.

As to `N#CCCC#N` (tested in a mixture with another compound), the T/C under setting [1] is 96 % of control and the T/C under setting [2] was 102 % of control.

For the compound `CCOP(=O)(CCO)OCC`, the T/C runs as follows: (dose: 50.0 mg/kg/injection, schedule: Q01DX005 (ip), vehicle: saline) 106 % of control; (dose: 100.0 mg/kg/injection, schedule: Q01DX005 (ip), vehicle: saline) 106 % of control; (dose: 200.0 mg/kg/injection, schedule: Q01DX005 (ip), vehicle: saline) 95 % of control; (dose: 400.0 mg/kg/injection, schedule: Q01DX005 (ip), vehicle: saline) 104 % of control.

As to `CCCCCCCCCCCCCC(=O)CC(=O)OC`, the T/C by setting is: (dose: 75.0 mg/kg/injection, schedule: Q04DX003 (ip), vehicle: Klucel (hydroxypropylcellulose) (HPC)) 94 % of control; (dose: 100.0 mg/kg/injection, schedule: Q01DX001 (ip), vehicle: Klucel (hydroxypropylcellulose) (HPC)) 103 % of control; (dose: 150.0 mg/kg/injection, schedule: Q04DX003 (ip), vehicle: Klucel (hydroxypropylcellulose) (HPC)) 106 % of control; (dose: 200.0 mg/kg/injection, schedule: Q01DX001 (ip), vehicle: Klucel (hydroxypropylcellulose) (HPC)) 100 % of control; (dose: 300.0 mg/kg/injection, schedule: Q04DX003 (ip), vehicle: Klucel (hydroxypropylcellulose) (HPC)) 93 % of control; (dose: 400.0 mg/kg/injection, schedule: Q01DX001 (ip), vehicle: Klucel (hydroxypropylcellulose) (HPC)) 96 % of control.

As to `OC(Cc1ccccc1)(c1ccccc1)C(O)(Cc1ccccc1)c1ccccc1` (stereo not drawn), the T/C by setting is: under setting [3], 94 % of control; under setting [4], 94 % of control; under setting [5], 94 % of control; under setting [6], 94 % of control.

Take `C[C@]12CC[C@H](OC(=O)Cc3ccc(N(CCCl)CCCl)cc3)CC1=CC[C@@H]1[C@@H]2CC[C@]2(C)C(=O)CC[C@@H]12`: the T/C was 88 % of control under setting [1]; 88 % of control under setting [2]; 88 % of control (dose: 400.0 mg/kg/injection, schedule: Q04DX003 (ip), vehicle: saline with Tween-80).

For `NC(N)=N/N=C/c1c2ccccc2cc2ccccc12`, the T/C (dose: 15.0 mg/kg/injection, schedule: Q01DX Z (ip), vehicle: carboxymethylcellulose (CMC)) was 101 % of control; the T/C (dose: 30.0 mg/kg/injection, schedule: Q01DX Z (ip), vehicle: carboxymethylcellulose (CMC)) is 101 % of control; the T/C (dose: 240.0 mg/kg/injection, schedule: Q01DX Z (oral), vehicle: carboxymethylcellulose (CMC)) was 104 % of control.

With `O=NN(CCCl)C(=O)NC12CC3CC(CC(C3)C1)C2`, the T/C is, setting by setting: (dose: 62.0 mg/kg/injection, schedule: Q01DX001 (ip), vehicle: carboxymethylcellulose (CMC)) 270 % of control; (dose: 93.0 mg/kg/injection, schedule: Q01DX001 (ip), vehicle: carboxymethylcellulose (CMC)) 250 % of control; (dose: 125.0 mg/kg/injection, schedule: Q01DX001 (ip), vehicle: carboxymethylcellulose (CMC)) 255 % of control; (dose: 187.0 mg/kg/injection, schedule: Q01DX001 (ip), vehicle: carboxymethylcellulose (CMC)) 182 % of control.

On to `O=C(CCl)NP(=O)(O)OCc1ccccc1`, for which the T/C is 102 % of control (dose: 25.0 mg/kg/injection, schedule: Q04DX002 (ip), vehicle: saline); 94 % of control (dose: 50.0 mg/kg/injection, schedule: Q04DX002 (ip), vehicle: saline); 91 % of control (dose: 100.0 mg/kg/injection, schedule: Q04DX002 (ip), vehicle: saline).

On to `NC12CC3CC(C1)CC(F)(C3)C2`, for which the T/C reads like this: (dose: 50.0 mg/kg/injection, schedule: Q01DX009 (ip), vehicle: saline) 101 % of control; (dose: 100.0 mg/kg/injection, schedule: Q01DX009 (ip), vehicle: saline) 99 % of control; (dose: 200.0 mg/kg/injection, schedule: Q01DX009 (ip), vehicle: saline) 101 % of control; (dose: 400.0 mg/kg/injection, schedule: Q01DX009 (ip), vehicle: saline) 93 % of control.

For `C[PH+](c1ccccc1)c1ccccc1.C[PH+](c1ccccc1)c1ccccc1.O=C([S-])[S-].[Pd+2]`, the T/C is 100 % of control (dose: 50.0 mg/kg/injection, schedule: Q04DX003 (ip), vehicle: saline); 100 % of control under setting [7]; 94 % of control under setting [8].

For `CCOC(=O)c1cnc2ccccc2c1Cl`, the T/C is, setting by setting: under setting [4], 103 % of control and 87 % of control; under setting [5], 105 % of control; under setting [6], 103 % of control.

`CCOC(=O)C12CCCCC1=CC1(CC2)SCCS1` (stereo not drawn): the T/C is 88 % of control (dose: 100.0 mg/kg/injection, schedule: Q01DX009 (ip), vehicle: acetone); 91 % of control (dose: 200.0 mg/kg/injection, schedule: Q01DX009 (ip), vehicle: acetone); 246 % of control (dose: 400.0 mg/kg/injection, schedule: Q01DX009 (ip), vehicle: acetone).

As for `Cc1cc(C)c(C#N)c(=O)[nH]1`, the T/C was 97 % of control under setting [9]; 100 % of control under setting [10]; 97 % of control under setting [11]; 92 % of control under setting [12]; 88 % of control under setting [13]; 95 % of control under setting [14].

With `O=C(COc1ccc(Cl)cc1Cl)NCc1ccc(Cl)cc1`, the T/C runs as follows: under setting [9], 91 % of control; under setting [15], 112 % of control; under setting [11], 96 % of control; under setting [16], 96 % of control; under setting [13], 94 % of control; under setting [17], 95 % of control.

For the compound `CC(=O)OCC(COC(C)=O)=C1N=C(c2ccccc2)OC1=O`, the T/C runs as follows: under setting [9], 103 % of control; under setting [15], 95 % of control; under setting [11], 106 % of control; under setting [16], 95 % of control; under setting [13], 107 % of control; under setting [17], 97 % of control.

With `CCOC(=O)c1cnc(SC)nc1Nc1ccccc1Br`, the T/C was 92 % of control under setting [15], 97 % of control under setting [16] and 98 % of control under setting [17].

Take `CCN(CC)CCC(=O)c1ccc2oc3ccccc3c2c1`: the T/C runs as follows: (dose: 12.0 mg/kg/injection, schedule: Q01DX001 (ip), vehicle: saline) 100 % of control; (dose: 25.0 mg/kg/injection, schedule: Q01DX001 (ip), vehicle: saline) 90 % of control; under setting [3], 103 % of control; under setting [4], 113 % of control.

Turning to `COc1cc(O)c([N+](=O)[O-])cc1[N+](=O)[O-]`, the T/C (dose: 100.0 mg/kg/injection, schedule: Q01DX001 (ip), vehicle: carboxymethylcellulose (CMC)) is 96 % of control; the T/C (dose: 200.0 mg/kg/injection, schedule: Q01DX001 (ip), vehicle: carboxymethylcellulose (CMC)) was 91 % of control; the T/C (dose: 400.0 mg/kg/injection, schedule: Q01DX001 (ip), vehicle: carboxymethylcellulose (CMC)) was 100 % of control.

For the compound `CCC(=O)OCN1C(=O)C2C3CCC(O3)C2C1=O` (stereo not drawn), the T/C is, setting by setting: (dose: 87.5 mg/kg/injection, schedule: Q01DX009 (ip), vehicle: other) 98 % of control; (dose: 175.0 mg/kg/injection, schedule: Q01DX009 (ip), vehicle: other) 111 % of control.

Take `O=C(c1ccccc1)c1cc2ccccc2n1S(=O)(=O)c1ccccc1`: the T/C reads like this: under setting [10], 95 % of control; under setting [12], 98 % of control; under setting [14], 95 % of control.

Consider `Nc1cccc(CC(N)C(=O)O)c1` (stereo not drawn), for which the T/C under setting [7] was 100 % of control; the T/C under setting [8] was 93 % of control; the T/C (dose: 400.0 mg/kg/injection, schedule: Q04DX003 (ip), vehicle: saline) is 100 % of control.
